Source: PMC10568461, “A pilot study of cerebral metabolism and serotonin 5-HT2A receptor occupancy in rats treated with the psychedelic tryptamine DMT in conjunction with the MAO inhibitor harmine” (Frontiers in Pharmacology, 2023)
Several values for one entry are separate records, joined by “and”; a condition that tells them apart may be missing. Identical values can stand only once.

Columns and labels:
rats = experiment: Behavioural observations in treated rats; assay type: in vivo, rat; details: not systematically assessed
[1] = set-up: method as in ref Guan et al., 2001; Li et al., 2017; Wang et al., 2019; Brito-da-Costa et al., 2020; details: rats, 0.5 to 3.3 mg/kg i.v. and 20–40 mg/kg p.o.; ref Guan et al., 2001; Li et al., 2017; Wang et al., 2019; Brito-da-Costa et al., 2020; cited from earlier work
brain glucose metabolism = experiment: [^18F]FDG-PET of cerebral glucose metabolism (experiment 1); assay type: in vivo, rat; details: for [^18F]FDG-PET SUV normalized to whole-brain uptake (SUVglob): 1 mg/kg s.c.; for [^18F]FDG-PET SUV normalized to whole-brain uptake (SUVglob) / [^18F]FDG-PET glucose normalized SUV (SUVgluc): mean (SD)
Protocol: The dynamic PET recordings were histogrammed into six frames of 5 minutes each, and reconstructed with attenuation, decay, and scatter correction using the OSEM3D/SP-MAP algorithm (2 x OSEM iterations and 18 x MAP iterations) with a matrix size of 128 × 128 pixels, resulting in a final target resolution of 0.8 mm/pixel. Pre-processing of PET scans was performed using PMOD v4.2 (PMOD Technologies LLC, Zurich, Switzerland). The [^18F]FDG images were averaged across the six frames and then converted into standardized uptake values (SUV), whereupon the image was cropped to the head of the animal and automatically co-registered to a standard [^18F]FDG-PET template. We used Schiffer’s atlas ([Schiffer et al., 2006]) for parcellation of bilateral brain regions within the cortico-striato-thalamo-cortical (CSTC) circuit, i.e. bilateral nucleus accumbens (NAc), medial prefrontal cortex (mPFC), orbitofrontal cortex (OFC), hippocampus, striatum, thalamus, visual cortex, cerebellum as a comparator region, and whole brain. We selected these regions from the CSTC circuit based on a conceptual model holding that the thalamus acts as a filter/gatekeeper of sensory information, broadcasting to cortical regions that subserve conscious experience ([Wang et al., 2006]; [McAlonan et al., 2008]). Perturbation of this CSTC circuit is implicated in the action of psychedelic compounds ([Geyer and Vollenweider, 2008]; [Preller et al., 2019]). We scaled individual regional SUV results to the mean blood glucose levels measured during the recording session (SUVgluc) and to the global [^18F]FDG uptake (SUVglob).

MAO-A [2] = target: T1, MAO-A (Rattus norvegicus, UniProt P21396); experiment: MAO-A inhibition in living brain inferred from cerebral 3-IAA; assay type: in vivo; details: Experiment 1, harmine 1 mg/kg with DMT; suggested by lower cerebral 3-IAA
T1 sequence (P21396 1-526): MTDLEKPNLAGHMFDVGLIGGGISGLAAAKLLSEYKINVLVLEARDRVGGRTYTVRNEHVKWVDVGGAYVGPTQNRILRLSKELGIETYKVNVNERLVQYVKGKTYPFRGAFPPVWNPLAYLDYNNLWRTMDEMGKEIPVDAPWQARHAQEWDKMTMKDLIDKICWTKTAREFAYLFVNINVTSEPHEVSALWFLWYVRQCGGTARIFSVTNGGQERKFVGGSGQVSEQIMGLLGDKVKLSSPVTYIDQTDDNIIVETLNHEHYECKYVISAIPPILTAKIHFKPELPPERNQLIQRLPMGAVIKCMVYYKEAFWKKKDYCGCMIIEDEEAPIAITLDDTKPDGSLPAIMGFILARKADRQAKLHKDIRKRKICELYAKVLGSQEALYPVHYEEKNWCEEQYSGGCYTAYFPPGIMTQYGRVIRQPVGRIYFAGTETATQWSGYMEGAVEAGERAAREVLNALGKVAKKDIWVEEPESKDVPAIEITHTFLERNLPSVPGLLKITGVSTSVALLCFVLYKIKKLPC

MAO-A [3] = target: T1, MAO-A; experiment: Apparent affinity at MAO binding sites in living brain; assay type: in vivo; details: extrapolated from the 150-fold in vitro/in vivo difference of [^18F]fluoroethyl-harmol; read-out: Predicted apparent affinity for MAO-A in living brain
[4] = Brain concentrations of harmine, DMT and metabolites by UHPLC-MS after s.c. harmine and/or DMT; details: rat, subcutaneous
Protocol: Groups of (n = 6) rats received either saline, harmine (1 mg/kg), DMT (1 mg/kg), or harmine + DMT (1 mg/kg each) as subcutaneous injections, as indicated in Figure 1.
After 45 min, rats were sacrificed by decapitation, and the brains dissected into cerebellum and frontal cortex samples for radioactivity measurement and chemical analysis, thus 65 min after harmine + DMT.

COc1ccc2c(c1)[nH]c1c(C)nccc12 [harmine]
Behaviour and anesthesia requirement of treated rats (rats): calmer and needed less isoflurane to sustain anesthesia | Plasma half-life [1]: 3.5 h | Qualitative effect on brain [^18F]FDG uptake (SUVglob maps) (brain glucose metabolism; 1 mg/kg, separately or in combination): no conspicuous effects | Thalamus SUVglob versus vehicle group (Dunn's post hoc test) (brain glucose metabolism; 1 mg/kg, Z = −2.66, p = 0.047): significantly different from the vehicle group | [^18F]FDG-PET SUV normalized to whole-brain uptake (SUVglob) (brain glucose metabolism; NAc): 6.23 (0.18) SUV | [^18F]FDG-PET glucose normalized SUV (SUVgluc) (brain glucose metabolism; NAc, 1 mg/kg): 6.4 (1.05) SUV | [^18F]FDG-PET SUV normalized to whole-brain uptake (SUVglob) (brain glucose metabolism; OFC): 6.5 (0.44) SUV | [^18F]FDG-PET glucose normalized SUV (SUVgluc) (brain glucose metabolism; OFC, 1 mg/kg): 6.71 (1.33) SUV | [^18F]FDG-PET SUV normalized to whole-brain uptake (SUVglob) (brain glucose metabolism; cerebellum): 4.52 (0.15) SUV | [^18F]FDG-PET glucose normalized SUV (SUVgluc) (brain glucose metabolism; cerebellum, 1 mg/kg): 4.62 (0.67) SUV | [^18F]FDG-PET SUV normalized to whole-brain uptake (SUVglob) (brain glucose metabolism; hippocampus): 5.32 (0.23) SUV | [^18F]FDG-PET glucose normalized SUV (SUVgluc) (brain glucose metabolism; hippocampus, 1 mg/kg): 5.44 (0.77) SUV | [^18F]FDG-PET SUV normalized to whole-brain uptake (SUVglob) (brain glucose metabolism; mPFC): 7.09 (0.32) SUV | [^18F]FDG-PET glucose normalized SUV (SUVgluc) (brain glucose metabolism; mPFC, 1 mg/kg): 7.28 (1.18) SUV | [^18F]FDG-PET SUV normalized to whole-brain uptake (SUVglob) (brain glucose metabolism; striatum): 6.99 (0.12) SUV | [^18F]FDG-PET glucose normalized SUV (SUVgluc) (brain glucose metabolism; striatum, 1 mg/kg): 7.19 (1.21) SUV | [^18F]FDG-PET SUV normalized to whole-brain uptake (SUVglob) (brain glucose metabolism; thalamus): 6.54 (0.13) SUV | [^18F]FDG-PET glucose normalized SUV (SUVgluc) (brain glucose metabolism; thalamus, 1 mg/kg): 6.73 (1.15) SUV | [^18F]FDG-PET SUV normalized to whole-brain uptake (SUVglob) (brain glucose metabolism; visual cortex): 6.1 (0.24) SUV | [^18F]FDG-PET glucose normalized SUV (SUVgluc) (brain glucose metabolism; visual cortex, 1 mg/kg): 6.29 (1.15) SUV | [^18F]FDG-PET glucose normalized SUV (SUVgluc) (brain glucose metabolism; whole brain, 1 mg/kg): 5.69 (0.93) SUV | Inhibition of MAO-A in living brain (MAO-A [2]): 50% | Kd (MAO-A [3]): ~300 nM | concentration at 100 min ([4]; brain, 1 mg/kg, Brain harmine concentration, at 100 min after treatment with 1 mg/kg): ~1000 nM | concentration at 95 min ([4]; brain, 1 mg/kg, Mean concentration in brain tissue, Experiment 1, after harmine alone (1 mg/kg)): 116 ng/g and 550 nM | concentration at 70 min ([4]; brain, 3 mg/kg, Brain harmine concentration, at 70 min after the higher dose (3 mg/kg)): ~2000 nM | concentration at 65 min ([4]; brain, Mean brain concentration, Experiment 2, harmine + DMT (3 mg/kg each)): 424 ng/g and 2 µM | concentration at 95 min ([4]; brain, Mean concentration in brain tissue, Experiment 1, after harmine + DMT (1 mg/kg each)): 257 ng/g and 1.21 µM | concentration at 95 min ([4]; cerebellum, 1 mg/kg, Brain concentration, Experiment 1, cerebellum, group DMT (1 mg/kg s.c.), 95 min, mean (SD)): 13.6 ng/g | concentration at 95 min ([4]; cerebellum, Brain concentration, Experiment 1, cerebellum, group Har (harmine 1 mg/kg s.c.), 95 min after drug, mean (SD)): 104 ng/g | concentration at 95 min ([4]; cerebellum, Brain concentration, Experiment 1, cerebellum, group Har + DMT (1 mg/kg each s.c.), 95 min, mean (SD)): 189 ng/g | concentration at 65 min ([4]; cerebellum, Brain concentration, Experiment 2, cerebellum, group Har + DMT (3 mg/kg each s.c.), 65 min, mean (SD)): 412 ng/g | concentration at 95 min ([4]; frontal cortex, 1 mg/kg, Brain concentration, Experiment 1, frontal cortex, group DMT (1 mg/kg s.c.), 95 min, mean (SD)): 20.1 ng/g | concentration at 95 min ([4]; frontal cortex, Brain concentration, Experiment 1, frontal cortex, group Har (harmine 1 mg/kg s.c.), 95 min, mean (SD)): 128 ng/g | concentration at 95 min ([4]; frontal cortex, Brain concentration, Experiment 1, frontal cortex, group Har + DMT (1 mg/kg each s.c.), 95 min, mean (SD)): 326 ng/g | concentration at 65 min ([4]; frontal cortex, Brain concentration, Experiment 2, frontal cortex, group Har + DMT (3 mg/kg each s.c.), 65 min, mean (SD)): 436 ng/g
